# In ChEMBL document CHEMBL1151283, “Bis(bibenzyls) from liverworts inhibit lipopolysaccharide-induced inducible NOS in RAW 264.7 cells: a study of structure-activity relationships and molecular mechanism” (J Nat Prod, 2005):
# Active and inactive are the calls of the source. The rule behind the calls is not given here.
# System: RAW264.7
# Assay: Inhibition of LPS-induced nitric oxide production in mouse RAW264.7 cells pretreated 1 hr before LPS challenge after 24 hrs by Griess reagent method
# Format: functional, cell-based
row,SMILES,IC50 [µM]
1,Oc1ccc2c(c1)/C=C/c1ccc(O)c(c1)Oc1ccc(cc1)CCc1cccc(c1)O2 [PTYCHANTOL A],> 100
2,COc1ccc2cc1Oc1ccc(cc1)CCc1cc(O)ccc1-c1ccc(cc1O)CC2 [RICCARDI F],5
3,Oc1ccc2cc1-c1cc(ccc1O)CCc1c(ccc(O)c1O)Oc1cccc(c1)/C=C\2 [ISOPLAGIOCHIN B],> 100
4,Oc1cc2cc(c1O)Oc1ccc(cc1)CCc1ccc(O)c(O)c1Oc1cccc(c1)CC2 [MARCHANTIN B],4.1
5,COc1cccc(CCc2ccc(O)c(Oc3ccc(CCc4cccc(O)c4)cc3)c2)c1,49.9
6,COc1cc2c(cc1O)-c1ccc(O)cc1CCc1cc(O)c(O)c(c1)Oc1ccc(cc1)CC2 [PLAGIOCHIN A],9.07
7,COc1ccc2c(c1)CCc1ccc(cc1)Oc1cc(ccc1O)CCc1ccc-2c(O)c1 [RICCARDIN A],2.5
8,COc1cccc2c1Oc1cccc(c1)CCc1cc(OC)c(OC)c(c1)Oc1ccc(cc1)CC2 [MARCHANTIN A TRIMETHYL ETHER],42.5
9,Oc1ccc2c(c1)CCc1ccc(O)c(c1)-c1cc(ccc1O)CCc1ccc-2c(O)c1 [ISOPLAGIOCHIN D],14.3
10,Oc1ccc2cc1Oc1cccc(c1)CC(O)c1cc(O)c(O)c(c1)Oc1ccc(cc1)CC2 (stereo not given) [MARCHANTIN D],10.2
11,Oc1cccc(CCc2ccc(Oc3cc(CCc4cccc(O)c4)cc(O)c3O)cc2)c1 [PERROTETTIN F],7.42
12,Oc1ccc2cc1Oc1ccc(cc1)CCc1cccc(c1)Oc1c(O)cccc1CC2 [ISOMARCHANTIN C],> 100
13,Oc1ccc2c(c1)CCc1ccc(cc1)Oc1cc(ccc1O)CCc1ccc-2c(O)c1 [RICCARDI C],> 100
14,Oc1ccc2cc1Oc1ccc(cc1)CCc1cc(O)c(O)c(c1)Oc1cccc(c1)CC2 [MARCHANTIN H],15.3
15,Oc1ccc2c(c1)CCc1ccc(O)c(c1)-c1cc(ccc1O)/C=C\c1cccc(c1)O2 [ISOPLAGIOCHIN A],> 100
16,COC1Cc2cccc(c2)Oc2c(O)cccc2CCc2ccc(cc2)Oc2cc1cc(O)c2O (stereo not given) [MARCHANTIN E],62.2
17,COc1cc2cc(c1OC)Oc1ccc(cc1)CCc1ccc(OC)c(OC)c1Oc1cccc(c1)CC2 [MARCHANTIN B TETRAMETHYL ETHER],42.5
18,Oc1cc2cc(c1O)Oc1ccc(cc1)CCc1cccc(O)c1Oc1cccc(c1)CC2 [MARCHANTIN A],1.44

# System: RAW264.7
# Assay: Inhibition of iNOS mRNA expression in mouse RAW264.7 cells […] by RT-PCR analysis
# Format: functional, cell-based
row,SMILES,Activity
1,Oc1cc2cc(c1O)Oc1ccc(cc1)CCc1cccc(O)c1Oc1cccc(c1)CC2 [MARCHANTIN A],inactive

# System: RAW264.7
# Assay: Inhibition of LPS-induced iNOS mRNA expression in mouse RAW264.7 cells […] by RT-PCR analysis
# Format: functional, cell-based
row,SMILES,Activity
1,Oc1cc2cc(c1O)Oc1ccc(cc1)CCc1cccc(O)c1Oc1cccc(c1)CC2 [MARCHANTIN A],Dose-dependent effect
